This is an account of results in patent publication US10251394B2, “Molecules having pesticidal utility, and intermediates, compositions, and processes, related thereto” (Dow AgroSciences LLC, priority 2016, dated 2019).

Common to all, as to type: in vivo
Experiment [1] deals with Cabbage Looper (Trichoplusia ni). The experiment can be described thus: Bioassay on Cabbage Looper (CL), 128-well diet tray assay. As to conditions: Cabbage Looper, Table ABC, read-out: CL rating. The gist of the method:
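Mortality after five to seven days at 25° C (14:10 photoperiod), averaged over eight wells per compound. Diet in each well carried 50 μg/cm^2 of dried test molecule and received one to five second-instar larvae.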

Experiment [2] deals with Beet Armyworm (Spodoptera exigua). Nature of the experiment: Bioassay on Beet Armyworm (BAW), 128-well diet tray assay. As to conditions: Beet Armyworm, Table ABC, read-out: BAW rating. Summed up:
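Percent mortality, averaged over eight wells, was scored after five to seven days at 25° C under 14:10 light-dark. Each well's diet carried 50 μg/cm^2 of test molecule applied in acetone-water (90:10) and dried before one to five second-instar larvae were added.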

Experiment [3] has as its system Green Peach Aphid (Myzus persicae). Nature of the experiment: Bioassay on Green Peach Aphid (GPA), foliar spray on cabbage seedlings. Particulars: 72 h, Table ABC, read-out: GPA rating. Here is the method:
Example B: Bioassays on Green Peach Aphid (Myzus Persicae, MYZUPE) (“GPA”) Certain molecules disclosed in this document were tested against GPA using procedures described in the following example. In the reporting of the results, the “GPA & YFM Rating Table” was used (See Table Section). Cabbage seedlings grown in 3-inch pots, with 2-3 small (3-5 cm) true leaves, were used as test substrate. The seedlings were infested with 20-50 GPA (wingless adult and nymph stages) one day prior to chemical application. Four pots with individual seedlings were used for each treatment. Test molecules (2 mg) were dissolved in 2 mL of acetone/methanol (1:1) solvent, forming stock solutions of 1000 ppm test molecule. The stock solutions were diluted 5× with 0.025% Tween 20 in water to obtain the solution at 200 ppm test molecule. A hand-held aspirator-type sprayer was used for spraying a solution to both sides of […] leaves until runoff. Reference plants (solvent check) were sprayed with the diluent only containing 20% by volume of acetone/methanol (1:1) solvent. Treated plants were held in a holding room for three days at approximately 25° C. and ambient relative humidity (RH) prior to grading. Evaluation was conducted by counting the number of live aphids per plant under a microscope. Percent Control was measured by using Abbott's correction formula (W. S. Abbott, “A Method of Computing the Effectiveness of an Insecticide” J. Econ. Entomol. 18 (1925), pp. 265-267) as follows. Corrected % Control=100*(X−Y)/X • where • X=No. of live aphids on solvent check plants and • Y=No. of live aphids on treated plants The results are indicated in the table entitled “Table ABC: Biological Results” (See Table Section).

Experiment [4] concerns Yellow Fever Mosquito (Aedes aegypti). Nature of the experiment: Bioassay on Yellow Fever Mosquito (YFM) larvae, 96-well plate. As to conditions: Table ABC. The gist of the method:
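About 1-day-old larvae in water with liver powder were added to wells holding compound from a 4000 ppm DMSO master diluted in 90:10 water:acetone. Plates covered and kept at room temperature for 3 days, then each well scored for mortality on a rating scale.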

For the compound `O=C(NC1(C(=O)NCC(F)(F)F)CC1)c1ccc(/C(F)=C/C(c2cc(Cl)c(Cl)c(Cl)c2)C(F)(F)F)cc1C(F)(F)F` (stereo not shown) [F3, (Z)-4-(1,4,4,4-Tetrafluoro-3-(3,4,5-trichlorophenyl)but-1-en-1-yl)-N-(1-((2,2,2-trifluoroethyl)carbamoyl)cyclopropyl)-2-(trifluoromethyl)benzamide], the pest or weed control at 50 µg/cm2 in experiment [1] and in experiment [2] was 50 to 100% throughout. In experiment [3], the pest or weed control at 200 µg/mL is 80 to 100%.
Regarding `C=CCc1c(Cl)cc(C(/C=C(\F)c2ccc(C(=O)N[C@H](C)C(=O)NCC(F)(F)F)c(C(F)(F)F)c2)C(F)(F)F)cc1Cl` (stereo partly drawn) [F146, 4-((Z)-3-(4-Allyl-3,5-dichlorophenyl)-1,4,4,4-tetrafluorobut-1-en-1-yl)-N—((R)-1-oxo-1-((2,2,2-trifluoroethyl)amino)propan-2-yl)-2-(trifluoromethyl)benzamide], the pest or weed control at 50 µg/cm2 in experiment [1] and in experiment [2] was 50 to 100% each time. Besides, the pest or weed control at 200 µg/mL in experiment [3] fell in the range of 0 to 80%. Also, the YFM rating entry in experiment [4] is listed as “B (More than 0-Less than 80)”.
Regarding `O=C(N[C@@H]1CON(CC(F)(F)F)C1=O)c1ccc(/C(F)=C/C(c2cc(F)c(F)c(F)c2)C(F)(F)F)cc1C(F)(F)F` (stereo partly drawn) [F155, N—((R)-3-Oxo-2-(2,2,2-trifluoroethyl)isoxazolidin-4-yl)-4-((Z)-1,4,4,4-tetrafluoro-3-(3,4,5-trifluorophenyl)but-1-en-1-yl)-2-(trifluoromethyl)benzamide], the pest or weed control at 50 µg/cm2 in experiment [1] and in experiment [2] was 50 to 100% in each case. Besides, the pest or weed control at 200 µg/mL in experiment [3] lay in the range of 80 to 100%. Further, the YFM rating entry in experiment [4] is reported as “A (80-100)”.
`O=C(CNC(=O)c1ccc(/C(F)=C/C(c2cc(F)c(F)c(F)c2)C(F)(F)F)cc1C(F)(F)F)NCC(F)(F)F` (stereo not shown) [F160, (Z)—N-(2-Oxo-2-((2,2,2-trifluoroethyl)amino)ethyl)-4-(1,4,4,4-tetrafluoro-3-(3,4,5-trifluorophenyl)but-1-en-1-yl)-2-(trifluoromethyl)benzamide]: the pest or weed control at 50 µg/cm2 in experiment [1] and in experiment [2] was 50 to 100% each time. Moreover, the pest or weed control at 200 µg/mL in experiment [3] is 80 to 100%. In addition, in experiment [4], the YFM rating entry was “A (80-100)”.
As for `CCN(CC(F)(F)F)C(=O)CNC(=O)c1ccc(/C(F)=C/C(c2cc(Cl)c(Cl)c(Cl)c2)C(F)(F)F)cc1C(F)(F)F` (stereo not shown) [F167, (Z)—N-(2-(ethyl(2,2,2-trifluoroethyl)amino)-2-oxoethyl)-4-(1,4,4,4-tetrafluoro-3-(3,4,5-trichlorophenyl)but-1-en-1-yl)-2-(trifluoromethyl)benzamide], the pest or weed control at 50 µg/cm2 in experiment [1] and in experiment [2] was 50 to 100% in each case. Besides, in experiment [3], the pest or weed control at 200 µg/mL lay in the range of 80 to 100%. Moreover, the YFM rating result in experiment [4] is “A (80-100)”.
`O=C(N[C@@H]1CON(CC(F)(F)F)C1=O)c1ccc(/C(F)=C/C(c2cc(Cl)c(Cl)c(Cl)c2)C(F)F)cc1C(F)(F)F` (stereo partly drawn) [F177, N—((R)-3-Oxo-2-(2,2,2-trifluoroethyl)isoxazolidin-4-yl)-4-((Z)-1,4,4-trifluoro-3-(3,4,5-trichlorophenyl)but-1-en-1-yl)-2-(trifluoromethyl)benzamide]: the pest or weed control at 50 µg/cm2 in experiment [1] and in experiment [2] was 50 to 100% each time. For the same compound, the pest or weed control at 200 µg/mL in experiment [3] was 80 to 100%. For the same compound, the YFM rating entry in experiment [4] is given as “A (80-100)”.
In the case of `O=C(N[C@@H]1CON(CC(F)(F)F)C1=O)c1ccc(/C(F)=C/C(c2ccc(C(F)(F)F)c(Cl)c2)C(F)(F)F)cc1C(F)(F)F` (stereo partly drawn) [F180, 4-((Z)-3-(3-Chloro-4-(trifluoromethyl)phenyl)-1,4,4,4-tetrafluorobut-1-en-1-yl)-N—((R)-3-oxo-2-(2,2,2-trifluoroethyl)isoxazolidin-4-yl)-2-(trifluoromethyl)benzamide], the pest or weed control at 50 µg/cm2 in experiment [1] and in experiment [2] was 50 to 100% in each case. Moreover, the pest or weed control at 200 µg/mL in experiment [3] was in the range of 80 to 100%.
In the case of `CN(CC(F)(F)F)C(=O)CNC(=O)c1ccc(/C(F)=C/C(c2ccc(F)c(Cl)c2)C(F)(F)F)cc1C(F)(F)F` (stereo not shown) [PF6, (Z)-4-(3-(3-Chloro-4-fluorophenyl)-1,4,4,4-tetrafluorobut-1-en-1-yl)-N-(2-(methyl(2,2,2-trifluoroethyl)amino]-2-oxoethyl)-2-(trifluoromethyl)benzamide], the pest or weed control at 50 µg/cm2 in experiment [1] and in experiment [2] was 50 to 100% throughout. Further, the pest or weed control at 200 µg/mL in experiment [3] lay in the range of 80 to 100%. In addition, the YFM rating result in experiment [4] was “A (80-100)”.
Take `Cc1cc(C(/C=C(\F)c2ccc(C(=O)NC3(C(=O)N(C)CC(F)(F)F)CC3)c(C(F)(F)F)c2)C(F)(F)F)cc(Cl)c1Cl` (stereo not shown) [PF16, (Z)-4-(3-(3,4-Dichloro-5-methylphenyl)-1,4,4,4-tetrafluorobut-1-en-1-yl)-N-(1-(methyl(2,2,2-trifluoroethyl)carbamoyl)cyclopropyl)-2-(trifluoromethyl)benzamide]: the pest or weed control at 50 µg/cm2 in experiment [1] and in experiment [2] was 50 to 100% each time. For the same compound, the pest or weed control at 200 µg/mL in experiment [3] was 0 to 80%. The YFM rating entry in experiment [4] is listed as “A (80-100)”.
On to `CN(CC(F)(F)F)C(=O)CNC(=O)c1ccc(/C(F)=C/C(c2ccc(Br)c(Cl)c2)C(F)(F)F)cc1C(F)(F)F` (stereo not shown) [PF24, (Z)-4-(3-(4-Bromo-3-chlorophenyl)-1,4,4,4-tetrafluorobut-1-en-1-yl)-N-(2-(methyl(2,2,2-trifluoroethyl)amino)-2-oxoethyl)-2-(trifluoromethyl)benzamide], for which the pest or weed control at 50 µg/cm2 in experiment [1] and in experiment [2] was 50 to 100% throughout. In addition, in experiment [3], the pest or weed control at 200 µg/mL is 80 to 100%. Also, the YFM rating result in experiment [4] was “A (80-100)”.
As for `O=C(NC1(C(=O)NCC(F)(F)F)CC1)c1ccc(/C(F)=C/C(c2ccc(Br)c(Cl)c2)C(F)(F)F)cc1C(F)(F)F` (stereo not shown) [PF27], the pest or weed control at 50 µg/cm2 in experiment [1] and in experiment [2] was 50 to 100% throughout. Besides, the pest or weed control at 200 µg/mL in experiment [3] fell in the range of 80 to 100%. Moreover, the YFM rating result in experiment [4] is on record as “B (More than 0-Less than 80)”.
On to `O=C(NC1(C(=O)NCC(F)(F)F)CC1)c1ccc(/C(F)=C/C(c2cc(Cl)cc(Br)c2)C(F)(F)F)cc1C(F)(F)F` (stereo not shown) [PF32, (Z)-4-(3-(3-Bromo-5-chlorophenyl)-1,4,4,4-tetrafluorobut-1-en-1-yl)-N-(1-((2,2,2-trifluoroethyl)carbamoyl)cyclopropyl)-2-(trifluoromethyl)benzamide], for which the pest or weed control at 200 µg/mL in experiment [3] is 0 to 80%.
